Common to all, as to assay: NCI-60 cell line screen, 48 h
The test system of test [1] is M14.
The test system of test [2] is RXF 393.
Test [3] has as its system IGROV-1.
Test [4] concerns EKVX.
For test [5], the system named is RPMI-8226.
The test system of test [6] is OVCAR-5.
Test [7] has as its system K562.
In test [8] the test system is HOP-62.
For test [9], the system named is NCI-H522.
Test [10] concerns HCT-15.
Test [11] deals with SF-268.
Test [12] deals with SNB-19.
For test [13], the system named is T47D.
Test [14] deals with UACC-257.
In test [15] the test system is DU-145.
Test [16] deals with HL-60.
Test [17] relates to OVCAR-4.
For test [18], the system named is TK-10.
The test system of test [19] is CCRF-CEM.
Test [20] has as its system KM12.

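Compound exposure: 48 hours, 5 concentrations, 96-well plates. GI50 = concentration required for 50% inhibition of growth.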 Active and inactive are the calls of the source. No stated cut-off is given here; in the data, active = GI50 up to about 1.1 µM and inactive = higher. Non-standard residues stand in square brackets, D forms with d. Residues, ends and D or L forms follow the SMILES beside them. *: point of attachment. Phe(4-NO2) = N[CH](Cc1ccc([N+](=O)[O-])cc1)C(=O)O; Boc = CC(C)(C)OC(=O)*

In the case of `O=C(/C=C/c1ccc(O)c(O)c1)OCCCc1ccccc1`, the GI50 in test [1] is 7.78 µM (inactive); in test [2] it was 11.2 µM (inactive); in test [3], 3.34 µM (inactive); in [4], 25.8 µM (inactive); in test [5] it was 13.1 µM (inactive); in test [6] it was 18.4 µM (inactive). Moreover, the GI50 in [7] is 21.3 µM (inactive); in [8] it was 13.7 µM (inactive); in test [9], 0.851 µM (active); in [10], 3.9 µM; in [11] it was 10.2 µM (inactive); in test [12], 15 µM (inactive). Also, the GI50 in [13] was 16.4 µM (inactive); in test [14] it was 34.1 µM (inactive); in [15], 14.1 µM (inactive); in test [16] it was 1.07 µM (active); in test [17], 6.67 µM (inactive).
On to `S=C(Nc1ccc2c(c1)oc1ccccc12)c1cccs1`, for which the GI50 is > 100 µM (inactive) in test [1]; 27.9 µM (inactive) in test [2]; > 100 µM (inactive) in test [18]; 37.1 µM (inactive) in [3]; 38.5 µM (inactive) in test [4]; > 100 µM (inactive) in test [6]. The GI50 is 25.4 µM (inactive) in [8]; 20.8 µM (inactive) in test [9]; over 100 µM in test [10]; 38.1 µM (inactive) in test [11]; > 100 µM (inactive) in test [19]; 38.1 µM (inactive) in test [12]. Besides, the GI50 is 3.37 µM (inactive) in [13]; > 100 µM (inactive) in test [14]; 40.8 µM (inactive) in test [15]; > 100 µM (inactive) in test [16]; 30.6 µM (inactive) in test [17].
Consider `CC(C)(O)C1COC2=C1C(=O)c1ccccc1C2=O` (stereo not given), for which the GI50 in [1] is 35.6 µM (inactive); in test [20], 88.3 µM (inactive); in test [3], 40.6 µM (inactive); in test [4], 32.3 µM (inactive); in [5], 44.8 µM (inactive); in test [6], 23.7 µM (inactive). The GI50 is 35.2 µM (inactive) in test [7]; 47.1 µM (inactive) in test [9]; 27.5 µM in [10]; 21.6 µM (inactive) in test [11]; 46.2 µM (inactive) in [19]; > 100 µM (inactive) in [12]. The GI50 in test [13] was 33.4 µM (inactive); in test [14], 71.9 µM (inactive); in test [15] it was 20.9 µM (inactive); in test [16], 18.9 µM (inactive); in test [17], 71 µM (inactive).
As to `OC1NC2Nc3ccccc3NC2NC1O` (stereo not given), the GI50 in test [1], in test [2], in [20], in test [18], in test [3] and in [4] was > 100 µM (inactive) in each case. Besides, the GI50 in test [6] is > 100 µM (inactive); in [7], > 100 µM (inactive); in test [8], > 100 µM (inactive); in test [9], > 100 µM (inactive); in test [10] it was over 100 µM; in test [11], > 100 µM (inactive). In addition, the GI50 in [19], in [12], in test [13], in test [14], in test [15] and in test [16] was > 100 µM (inactive) each time. Moreover, the GI50 in test [17] was > 100 µM (inactive).
As to `N#CCCN(CCC#N)CCN(CCN(CCC#N)CCC#N)CCN(CCC#N)CCC#N`, the GI50 in test [1], in test [2], in test [18], in [3], in [4] and in [5] was > 100 µM (inactive) each time. Also, the GI50 was > 100 µM (inactive) in test [6]; > 100 µM (inactive) in [7]; > 100 µM (inactive) in test [8]; > 100 µM (inactive) in test [9]; over 100 µM in [10]; > 100 µM (inactive) in test [11]. For the same compound, the GI50 in test [12], in [13], in [14], in test [15], in test [16] and in test [17] was > 100 µM (inactive) throughout.
On to `CCN(CC)C(=S)N/N=C/c1cc([N+](=O)[O-])ccc1O`, for which the GI50 in test [1] was 4.17 µM (inactive); in [2], 6.97 µM (inactive); in test [20], 4.07 µM (inactive); in [18], 8.87 µM (inactive); in [3] it was 3.65 µM (inactive); in test [4], 4.56 µM (inactive). Further, the GI50 is 24.3 µM (inactive) in test [6]; 3.18 µM (inactive) in test [7]; 7.4 µM (inactive) in [8]; 5.07 µM (inactive) in test [9]; 3.62 µM in [10]; 3.66 µM (inactive) in test [11]. Further, the GI50 in test [19] is 1.26 µM (inactive); in test [12] it was 9.16 µM (inactive); in test [13], 5.13 µM (inactive); in [14], 8.53 µM (inactive); in [15] it was 4.56 µM (inactive); in [16], 1.69 µM (inactive). Besides, the GI50 in test [17] is 3.65 µM (inactive).
On to `COCCCNc1c2ccccc2nc2ccccc12`, for which the GI50 in [1] was 2.01 µM (inactive); in [2] it was 3.35 µM (inactive); in test [20], 4.39 µM (inactive); in [18], 5.62 µM (inactive); in test [3] it was 3.56 µM (inactive); in test [4] it was 3.59 µM (inactive). In addition, the GI50 in test [6] is 2.17 µM (inactive); in test [7], 3.23 µM (inactive); in test [8] it was 3.29 µM (inactive); in test [9] it was 1.64 µM (inactive); in test [10], 1.3 µM; in test [11], 3.75 µM (inactive). Further, the GI50 in [19] is 5.26 µM (inactive); in test [12] it was 3.09 µM (inactive); in [13] it was 2.64 µM (inactive); in [14], 2.42 µM (inactive); in [15], 2.52 µM (inactive); in [16] it was 3.87 µM (inactive). The GI50 in [17] is 2.64 µM (inactive).
As to `O=C(Nc1ccc(Cl)c(Cl)c1)OCCN1c2ccccc2Sc2ccccc21`, the GI50 in [1], in test [20], in [18], in test [3], in [5] and in test [6] was > 10 µM (inactive) in each case. For the same compound, the GI50 in test [7] was > 10 µM (inactive); in [8], > 10 µM (inactive); in [9] it was > 10 µM (inactive); in test [10], over 10 µM; in test [11] it was > 10 µM (inactive); in test [19], > 10 µM (inactive). Also, the GI50 in [12], in test [13], in test [14], in [15], in [16] and in test [17] was > 10 µM (inactive) each time.
As for `COc1ccc(-c2c(C#N)c(N)nc3c2CCS(=O)(=O)c2ccccc2-3)cc1`, the GI50 in test [20] is > 100 µM (inactive); in test [18], > 100 µM (inactive); in test [3] it was > 100 µM (inactive); in test [7] it was > 100 µM (inactive); in test [9] it was > 100 µM (inactive); in test [10] it was over 100 µM. The GI50 in [11], in [19], in [12], in test [13], in test [14] and in test [15] was > 100 µM (inactive) each time. Besides, the GI50 in [16] and in test [17] was > 100 µM (inactive) each time.
`O=C1C/C(=C\c2ccccc2)C(=O)c2ccccc2N1`: the GI50 is 23.2 µM (inactive) in [1]; 19.6 µM (inactive) in test [2]; 22.6 µM (inactive) in [20]; 32.9 µM (inactive) in test [18]; 18.6 µM (inactive) in [3]; 24.1 µM (inactive) in test [4]. Moreover, the GI50 in test [6] is 20 µM (inactive); in test [8], 27.5 µM (inactive); in test [9], 22.9 µM (inactive); in test [10] it was 24.7 µM; in test [11], 38.2 µM (inactive); in [19], 16.7 µM (inactive). The GI50 in [12] was 14.9 µM (inactive); in test [13], 28.2 µM (inactive); in test [14], 26.9 µM (inactive); in [15], 32.5 µM (inactive); in [16] it was 20.8 µM (inactive); in test [17] it was 20 µM (inactive).
As for `COC(=O)CCC(NC(=O)OC(C)(C)C)C(=O)NC(Cc1ccc([N+](=O)[O-])cc1)C(=O)NC(CCC(=O)OC)C(=O)OC` (stereo not given) (Boc-Glu(OMe)-[Phe(4-NO2)]-Glu(OMe)-OMe; configuration not given here), the GI50 in test [1], in test [2], in test [20], in [18], in test [3] and in test [4] was > 100 µM (inactive) each time. The GI50 in [5] is 27 µM (inactive); in test [6], > 100 µM (inactive); in test [7], 35.4 µM (inactive); in test [8] it was > 100 µM (inactive); in test [9], > 100 µM (inactive); in [10] it was over 100 µM. Moreover, the GI50 in test [11] was > 100 µM (inactive); in test [19], 12.3 µM (inactive); in test [12] it was > 100 µM (inactive); in test [13], > 100 µM (inactive); in test [14], 11.3 µM (inactive); in test [15], > 100 µM (inactive). Moreover, the GI50 in test [17] was > 100 µM (inactive).

Source of the values: ChEMBL document CHEMBL1201862, “PubChem BioAssay data set” (2004).
